The values that follow come from publication PMC5986646.

Structures can show the parent of a compound that is named as a salt. Where two headings read alike, the source gives them in different places. Square brackets hold non-standard residues; d marks the D form. Peptide text beside a SMILES is read from it. dLac(3-vinyl) = C=CC[C@@H](O)C(=O)O; dHica = CC(C)C[C@@H](O)C(=O)O; NMeV = CN[C@H](C(=O)O)C(C)C; NMeA = CN[C@@H](C)C(=O)O; βAla = NCCC(=O)O

For series [1], the system named is HCT116/wt cells. The series can be described thus: Cell viability assay (MTT, EZ4U). It is filed as cell-based, human. Particulars: mean (± SD) of at least three independent experiments in triplicates.
Series [2] deals with HCT116/dtxA cells. In words: Cell viability assay (MTT, EZ4U). Particulars: for IC50: n ≥ 3. It is filed as cell-based, human.
The next series relates to HCT116/dtxB cells. In words: Cell viability assay (MTT, EZ4U). The conditions noted are these: for IC50: n ≥ 3. It is filed as cell-based, human.
Series [3] concerns HCT116/dtxE cells. The series can be described thus: Cell viability assay (MTT, EZ4U). It is filed as cell-based, human. The conditions noted are these: for IC50: HCT116/dtxE, about one year of selection, MTT, mean (± SD), n ≥ 3; for relative resistance: mean IC50 HCT116/dtxE divided by IC50 HCT116/wt.
In series [4] the test system is HCT116/wt cells. In words: Annexin-V/PI staining (apoptosis/necrosis). It is filed as cell-based, human. Particulars: 48 h, 5 μM dtxA, 2.5 μM dtxB, dtxE around the IC50 value, FACS.
The subject of series [5] is HCT116/wt cells. In words: JC-1 mitochondrial membrane depolarization. It is filed as cell-based, human. Particulars: parental cells, 48 h, JC-1, FACS. The method, then:
(§1) Parental and dtx-resistant cells were seeded (1x10^5 cells/well in 6-well plates) and treated on the following day for 48 h with the indicated concentrations of dtxA, dtxB or dtxE. Next, the mitochondrial membrane potential (ΔΨm) was measured. In doing so, cells were detached by trypsinization, centrifuged with 300× g for 5 min at 4°C and stained with the fluorescent dye JC-1 (5,5’,6,6’-tetrachloro-1,1’,3’,3’-tetraethyl-benzimidazolylcarbocyanine iodide) for 10 min at 37°C. FACS analysis was performed according to the manufacturer’s instructions (Mitochondrial Membrane Potential detection Kit; Stratagene, La Jolla, CA, USA). To further compare apoptotic changes in the parental and resistant cells, Annexin V-APC/PI stainings were carried out.

Series [6] deals with resistant sublines (HCT116/dtxA, HCT116/dtxB, HCT116/dtxE). The series can be described thus: JC-1 mitochondrial membrane depolarization. It is filed as cell-based, human. Particulars: each destruxin in its respective resistant subline, 48 h, JC-1, FACS. The method, then:
as §1

Series [7] relates to HCT116/dtxA cells. In words: Whole-cell patch clamp, ionophoric activity. It is filed as cell-based, human. The conditions noted are these: resistant HCT116/dtxA, 20 μM dtxA, whole-cell mode, membrane potential -60 mV, RT. The method, then:
(§2) Ionophoric activity of dtxA, dtxB and dtxE was determined by patch clamp experiments, performed as previously described. Briefly, ionic currents were recorded in whole-cell mode at RT. Glass electrodes with a resistance less than 5 MΩ were pulled with a DMZ universal puller and filled with intracellular solution (120 mM CsF, 20 mM CsCl, 5 mM EGTA, 5 mM HEPES; pH 7.4). HCT116/wt or resistant cells were perfused with extracellular solution (140 mM NaCl, 4 mM KCl, 1.8 mM CaCl2, 0.75 mM MgCl2, 5 mM HEPES; pH 7.4) in a 1 mL chamber. After obtaining a whole-cell configuration, cells were allowed to equilibrate for 5 min before recording any currents and then pulsed to -60 mV for 10 sec pulses. Data were filtered at 5 kHz and digitized at 10 kHz by using digidata 1440A. Traces were averaged and subtracted from control recording, in the presence or absence of 20 μM dtxA, dtxB or dtxE, to observe ionophoric activity.
For orientation: In patch-clamp work, channel activity is measured electrically.

Series [8] deals with HCT116/wt cells. The series can be described thus: Whole-cell patch clamp, ionophoric activity. It is filed as cell-based, human. Particulars: parental HCT116/wt, 20 μM dtxA, whole-cell mode, membrane potential -60 mV, RT. The method, then: as §2
In series [9] the test system is HCT116/dtxA cells. In words: Cell viability, dtxA combined with mevalonate pathway inhibitors, combination index. It is filed as cell-based, human.
A further series relates to parental HCT116. In words: Cell viability, dtxA combined with mevalonate pathway inhibitors. It is filed as cell-based, human. Particulars: parental HCT116, inhibitor with dtxA, 72 h.
Another series has as its system MCF7. The series is described as above. It is filed as cell-based, human. Particulars: MCF7, intrinsically low sensitivity, inhibitor with dtxA, 72 h.
Another series concerns BT20. The series is described as above. Particulars: BT20, intrinsically low sensitivity, inhibitor with dtxA, 72 h. It is filed as cell-based, human.
The test system of series [10] is HCT116/dtxE cells. The conditions noted are these: 10 μM verapamil or 1 μM cyclosporin A with increasing dtxE.
The next series concerns HeLa cell derivative. Also on record: method as in PMID 19517454. The conditions noted are these: 18 months selection period of a HeLa cell derivative; cited from earlier work.
Setting [11] is: HCT116/dtxA, about one year of selection, 72 h, MTT, mean (± SD).
Setting [12] is: HCT116/dtxB, about one year of selection, 72 h, MTT, mean (± SD).
Where [13] appears, read: mean IC50 HCT116/dtxA divided by IC50 HCT116/wt.
The mark [14] stands for this setting: mean IC50 HCT116/dtxB divided by IC50 HCT116/wt.
Where [15] appears, read: HCT116/dtxA, inhibitor 24 h pretreatment, then dtxA 72 h, statins at concentrations above 2.5 μM, Chou-Talalay, CalcuSyn, CI < 1 synergism.

As a reminder, the IC50 is the concentration that inhibits the measured activity by half. A low value points to greater potency. Take `Nc1ccn([C@@H]2O[C@H](CO)[C@@H](O)C2(F)F)c(=O)n1` [Gemcitabin]: the IC50 is 400 nM in the series with HCT116/wt cells [1] (72 h), 400 nM with HCT116/dtxA cells [2] (setting [11]), 400 nM with HCT116/dtxB cells (setting [12]) and 300 nM in the series with HCT116/dtxE cells [3] (72 h).

In the case of `CC[C@H](C)[C@@H]1NC(=O)[C@@H]2CCCN2C(=O)[C@@H](CC(C)C)OC(=O)CCNC(=O)[C@H](C)N(C)C(=O)[C@H](C(C)C)N(C)C1=O` [dtxB, destruxin B] (cyclo([dHica]PI[NMeV][NMeA][βAla])), the relative resistance in the series with HCT116/dtxA cells [2] (setting [13]) was 18.2 -fold; in the series with HCT116/dtxB cells (HCT116/dtxB vs HCT116/wt, month 4 after selection start), 4.4 -fold; in the series with HCT116/dtxB cells (HCT116/dtxB vs HCT116/wt, month 6 after selection start), 4.2 -fold; in the series with HCT116/dtxB cells (HCT116/dtxB vs HCT116/wt, month 8 after selection start), > 25 -fold; in the series on HCT116/dtxB cells (HCT116/dtxB vs HCT116/wt, month 12 after selection start) it was > 40 -fold; in the series with HCT116/dtxB cells (setting [14]), >40 -fold. Further, the relative resistance in the series on HCT116/dtxE cells [3] is 0.3 -fold. For the same molecule, the IC50 was above 100000 nM with HCT116/dtxB cells (HCT116/dtxB (unsel.), removed from drug selection for one month, 72 h, mean) and above 100000 nM with HCT116/dtxB cells (setting [12]). In addition, in the series on HCT116/wt cells [4], the “percentages of early and/or late apoptotic cells” value is “markedly and significantly increased”. Moreover, the figures for the mitochondrial membrane depolarization result (with HCT116/wt cells [5]; in series [6]) were “only observed in parental cells” and “no significant increase”, respectively.

For `CC[C@@]1(O)C(=O)OCc2c1cc1n(c2=O)Cc2cc3c(CN(C)C)c(O)ccc3nc2-1` [Topotecan], the concentration for half-maximal inhibition (IC50) with HCT116/wt cells [1] (Homo sapiens, HCT-116, 72 h) was 27.4 nM; in the series with HCT116/dtxA cells [2] (Homo sapiens, HCT-116, HCT116/dtxA, about one year of selection, 72 h, MTT, mean (± SD)), 26 nM; in the series with HCT116/dtxB cells (Homo sapiens, HCT-116, HCT116/dtxB, about one year of selection, 72 h, MTT, mean (± SD)) it was 8.2 nM; with HCT116/dtxE cells [3] (Homo sapiens, HCT-116, 72 h) it was 25 nM.

As to `CC[C@]1(O)C[C@H]2CN(CCc3c([nH]c4ccccc34)[C@@](C(=O)OC)(c3cc4c(cc3OC)N(C=O)[C@H]3[C@@](O)(C(=O)OC)[C@H](OC(C)=O)[C@]5(CC)C=CCN6CC[C@]43[C@@H]65)C2)C1` [vincristine], the “cytotoxic activity compared to parental cells (reduction)” value in the series on HCT116/dtxA cells [2] (HCT116/dtxA vs HCT116/wt, 72 h) was “absent”; in the series on HCT116/dtxB cells (HCT116/dtxB vs HCT116/wt, 72 h), “very weak”. In the series on HCT116/dtxE cells [3] (HCT116/dtxE vs HCT116/wt, 72 h), the “cytotoxic activity compared to parental cells” value is reported as “significantly reduced cytotoxic activity”.

Regarding `C=CC[C@H]1OC(=O)CCNC(=O)[C@H](C)N(C)C(=O)[C@H](C(C)C)N(C)C(=O)[C@H]([C@@H](C)CC)NC(=O)[C@@H]2CCCN2C1=O` [dtxA, destruxin A] (cyclo([dLac(3-vinyl)]PI[NMeV][NMeA][βAla])), the IC50 is above 100000 nM in the series with HCT116/dtxA cells [2] (HCT116/dtxA (unsel.), removed from drug selection for one month, 72 h, mean) and above 100000 nM with HCT116/dtxA cells [2] (setting [11]). Also, the relative resistance with HCT116/dtxA cells [2] (HCT116/dtxA vs HCT116/wt, month 6 after selection start) is 3.5 -fold; with HCT116/dtxA cells [2] (HCT116/dtxA vs HCT116/wt, month 8 after selection start), > 20 -fold; in the series on HCT116/dtxA cells [2] (setting [13]), >28.6 -fold; with HCT116/dtxB cells (setting [14]) it was 21.8 -fold; with HCT116/dtxE cells [3] it was 0.3 -fold. Also, the figures for the “mean total current (pore forming ability)” value in the series with HCT116/dtxA cells [7] and in the series with HCT116/wt cells [8] were -0.2 pA/ms and -0.7 pA/ms, respectively. The “percentages of early and/or late apoptotic cells” value with HCT116/wt cells [4] was “markedly and significantly increased”. Moreover, the mitochondrial membrane depolarization result with HCT116/wt cells [5] is recorded as “only observed in parental cells”; in series [6], “no significant increase”.

As to `O=C1[O][Pt]2([NH][C@@H]3CCCC[C@H]3[NH]2)[O]C1=O` [Oxaliplatin], the IC50 was 800 nM with HCT116/wt cells [1] (72 h), 500 nM in the series on HCT116/dtxA cells [2] (setting [11]), 1000 nM in the series on HCT116/dtxB cells (setting [12]) and 400 nM with HCT116/dtxE cells [3] (72 h).

Turning to `CC[C@H](C)C(=O)O[C@H]1C[C@@H](C)C=C2C=C[C@H](C)[C@H](CC[C@@H]3C[C@@H](O)CC(=O)O3)[C@H]21` [lovastatin, lovastatin (Mevinolin)], the “combination index (CI) in combination with dtxA” value (shortened to “combination index (CI)”) in the series on HCT116/dtxA cells [9] (setting [15]) is reported as “smaller than 1”. Also, the “effect on cytotoxic activity of dtxA” value in the series on parental HCT116 is recorded as “augmented”.

Take `NC(=S)N/N=C/c1ncccc1N` [Triapin]: the concentration for half-maximal inhibition (IC50) in the series with HCT116/wt cells [1] (72 h) is 800 nM; with HCT116/dtxA cells [2] (setting [11]) it was 600 nM; in the series on HCT116/dtxB cells (setting [12]), 800 nM; in the series with HCT116/dtxE cells [3] (72 h) it was 800 nM.

For the molecule `CC(C)n1c(/C=C/C(O)CC(O)CC(=O)O)c(-c2ccc(F)cc2)c2ccccc21` (stereo not drawn) [fluvastatin, fluvastatin sodium salt hydrate], the “combination index (CI)” value in the series with HCT116/dtxA cells [9] (setting [15]) was “smaller than 1”. Besides, the “effect on cytotoxic activity of dtxA” value in the series on parental HCT116, with MCF7 and in the series on BT20 was “augmented” throughout.

In the case of `O=c1[nH]cc(F)c(=O)[nH]1` [5-FU], the IC50 in the series with HCT116/wt cells [1] (72 h) came to 52000 nM; with HCT116/dtxA cells [2] (setting [11]) it was 36400 nM; in the series on HCT116/dtxB cells (setting [12]), 38900 nM; in the series on HCT116/dtxE cells [3] (72 h) it was 34700 nM.

With `COc1ccc(CCN(C)CCCC(C#N)(c2ccc(OC)c(OC)c2)C(C)C)cc1OC` (stereo not drawn) [verapamil], the “sensitivity of HCT116/dtxE cells towards dtxE on co-incubation” value in the series with HCT116/dtxE cells [10] is on record as “partly restored”.

Turning to `N.N.[Cl][Pt][Cl]` [Cisplatin], the half-inhibitory concentration (IC50) turned out to be 4000 nM with HCT116/wt cells [1] (72 h), 1900 nM in the series on HCT116/dtxA cells [2] (setting [11]), 2200 nM in the series on HCT116/dtxB cells (setting [12]) and 4400 nM in the series on HCT116/dtxE cells [3] (72 h).

With `CC(C)[C@H]1OC(=O)[C@H](Cc2ccccc2)N(C)C(=O)[C@@H](C(C)C)OC(=O)[C@H](Cc2ccccc2)N(C)C(=O)[C@@H](C(C)C)OC(=O)[C@H](Cc2ccccc2)N(C)C1=O` [Beauvericin], the resistance obtained entry with HeLa cell derivative is “no resistance”.

As to `O=P(O)(O)C(O)(Cn1ccnc1)P(=O)(O)O` [zoledronic acid, zoledronic acid monohydrate], the “combination index (CI)” value in the series on HCT116/dtxA cells [9] was “smaller than 1”. Further, the “effect on cytotoxic activity of dtxA” value in the series on parental HCT116, in the series with MCF7 and in the series on BT20 was “augmented” each time.
